From patent publication US4822778A, “Membrane stabilizing phenoxy-piperidine compounds and pharmaceutical compositions employing such compounds” (Aberg; Gunnar, priority 1988, dated 1989) come the findings set out here.

The first data set concerns guinea pigs. Put plainly: Infiltration anesthetic effects, intracutaneous injection in guinea pigs. The note with it: 0.2 ml of 0.5% by weight solution. Format: in vivo. The procedure:
1. […] A. Infiltration anesthetic effects: The effects of the new compounds were tested according to Aberg & […], Acta Anaesth.
On to `CCN1CCCCC1COc1c(C)cccc1C` (stereo not shown) [Example 5, N-ethyl-2-[(2,6-xyloxy)-methyl]piperidine], for which the Infiltration anesthesia duration is given as 70 min.

As for `CN1CCCCC1COc1ccccc1` (stereo not shown) [Example 10], the Infiltration anesthesia duration came to 35 min.

Consider `Cc1cccc(C)c1OCC1CCCCN1` (stereo not shown) [Example 1, 2-[(2,6-xyloxy)methyl]piperidine], for which the Infiltration anesthesia duration is listed as 40 min.

Compound `CCCN1CCCCC1COc1c(C)cccc1C` (stereo not shown) [Example 6, N-(n-propyl)-2-[(2,6-xyloxy)methyl]piperidine] registered an Infiltration anesthesia duration of 175 min.

For the compound `CC1CCCC(C)C1OCC1CCCCN1` (stereo not shown) [Example 3, 2-[(2,6-dimethylcyclohexyloxy)methyl]piperidine], the Infiltration anesthesia duration is 35 min.

As to `Cc1ccccc1OCC1CCCCN1C` (stereo not shown) [Example 11], the Infiltration anesthesia duration was 55 min.

In the next data set the test system is sciatic nerve. Put plainly: Nerve blocking effects in rats in vivo. Particulars: 0.25 ml of 0.5% by weight solution. Here is the method: B. Nerve blocking effects. The tests were carried out in vivo in rats after injection of 0.25 ml of the test solutions close to the sciatic nerve.
In the case of `CCN1CCCCC1COc1c(C)cccc1C` (stereo not shown) [Example 5, N-ethyl-2-[(2,6-xyloxy)-methyl]piperidine], the “Nerve blocking effect, Motoric blockade” value is reported as 90 min and the “Nerve blocking effect, Sensoric blockade” value turned out to be 115 min.

On to `CN1CCCCC1COc1ccccc1` (stereo not shown) [Example 10], for which the “Nerve blocking effect, Motoric blockade” value is 25 min and the “Nerve blocking effect, Sensoric blockade” value is 40 min.

Consider `Cc1cccc(C)c1OCC1CCCCN1` (stereo not shown) [Example 1, 2-[(2,6-xyloxy)methyl]piperidine], for which the “Nerve blocking effect, Motoric blockade” value is listed as 75 min and the “Nerve blocking effect, Sensoric blockade” value was 90 min.

On to `CCCN1CCCCC1COc1c(C)cccc1C` (stereo not shown) [Example 6, N-(n-propyl)-2-[(2,6-xyloxy)methyl]piperidine], for which the “Nerve blocking effect, Motoric blockade” value is listed as 145 min and the “Nerve blocking effect, Sensoric blockade” value is 155 min.

As to `CC1CCCC(C)C1OCC1CCCCN1` (stereo not shown) [Example 3, 2-[(2,6-dimethylcyclohexyloxy)methyl]piperidine], the “Nerve blocking effect, Motoric blockade” value amounted to 0 min and the “Nerve blocking effect, Sensoric blockade” value came out at 0 min.

With `Cc1ccccc1OCC1CCCCN1C` (stereo not shown) [Example 11], the “Nerve blocking effect, Motoric blockade” value is on record as 60 min and the “Nerve blocking effect, Sensoric blockade” value came out at 85 min.

For a further data set, the system named is rabbit cornea. Put plainly: Topical anesthetic effects, corneal test in rabbits in vivo. Particulars: 0.25 ml, concentration 1.0%. Here is the method: C. Topical anesthetic effects. Corneal tests were carried out in rabbits in vivo according to Henn.
Regarding `CCN1CCCCC1COc1c(C)cccc1C` (stereo not shown) [Example 5, N-ethyl-2-[(2,6-xyloxy)-methyl]piperidine], the “Topical anesthetic effect, Duration” value amounted to 18 ± 3 min and the “Topical anesthetic effect, Onset frequency” value is 9/10.

On to `Cc1cccc(C)c1OCC1CCCCN1` (stereo not shown) [Example 1, 2-[(2,6-xyloxy)methyl]piperidine], for which the “Topical anesthetic effect, Duration” value is on record as 24 ± 4 min and the “Topical anesthetic effect, Onset frequency” value was 9/10.

For the compound `CCCN1CCCCC1COc1c(C)cccc1C` (stereo not shown) [Example 6, N-(n-propyl)-2-[(2,6-xyloxy)methyl]piperidine], the “Topical anesthetic effect, Duration” value was found to be 24 ± 2 min and the “Topical anesthetic effect, Onset frequency” value is 9/9.

Tested on in another data set: not listed separately
The data set can be described thus: Convulsive and lethal doses in rats, intravenous infusion. It is filed as in vivo. Particulars: rat, in vivo, iv; male rats, i.v. at 1.0 mg/kg/min; read-out: Convulsive dose. Here is the method: (§1) Convulsive doses and lethal doses after intravenous administration for selected compounds of the invention and for Bupivacaine are shown in Table 3 below.
(§2) Convulsive and lethal doses of selected compounds
(§3) administered intravenously at 1.0 mg/kg/min to rats (male;
As for `CCN1CCCCC1COc1c(C)cccc1C` (stereo not shown) [Example 5, N-ethyl-2-[(2,6-xyloxy)-methyl]piperidine], the TD50 worked out at 15 mg/kg.

Consider `Cc1cccc(C)c1OCC1CCCCN1` (stereo not shown) [Example 1, 2-[(2,6-xyloxy)methyl]piperidine], for which the TD50 was 22 mg/kg.

As to `CCCCN1CCCCC1C(=O)Nc1c(C)cccc1C` (stereo not shown) [Bupivacaine, reference compound], the TD50 was 9 mg/kg.

Turning to `CCCN1CCCCC1COc1c(C)cccc1C` (stereo not shown) [Example 6, N-(n-propyl)-2-[(2,6-xyloxy)methyl]piperidine], the TD50 came to 11 mg/kg.

Another data set deals with rats. Described as above. Format: in vivo. The note with it: male rats, i.v. at 1.0 mg/kg/min. Here is the method: as §1, §2, §3
In turn, `CCN1CCCCC1COc1c(C)cccc1C` (stereo not shown) [Example 5, N-ethyl-2-[(2,6-xyloxy)-methyl]piperidine] displayed a Lethal dose of 41 mg/kg.

In the case of `Cc1cccc(C)c1OCC1CCCCN1` (stereo not shown) [Example 1, 2-[(2,6-xyloxy)methyl]piperidine], the Lethal dose is recorded as 50 mg/kg.

As to `CCCCN1CCCCC1C(=O)Nc1c(C)cccc1C` (stereo not shown) [Bupivacaine, reference compound], the Lethal dose is reported as 13 mg/kg.

Turning to `CCCN1CCCCC1COc1c(C)cccc1C` (stereo not shown) [Example 6, N-(n-propyl)-2-[(2,6-xyloxy)methyl]piperidine], the Lethal dose is 20 mg/kg.

Tested on in a further data set: not listed separately
The data set can be described thus: in vivo. Particulars: mouse, sc.
One may read the LD50 as the dose at which mortality reaches 50%. A lower LD50 goes with greater toxicity. Take `CCN1CCCCC1COc1c(C)cccc1C` (stereo not shown) [Example 5, N-ethyl-2-[(2,6-xyloxy)-methyl]piperidine]: the 50% lethal dose (LD50) was determined as 200 mg/kg.

As for `CN1CCCCC1COc1ccccc1` (stereo not shown) [Example 10], the LD50 was determined as 150 mg/kg.

`Cc1cccc(C)c1OCC1CCCCN1` (stereo not shown) [Example 1, 2-[(2,6-xyloxy)methyl]piperidine] showed an LD50 of 110 mg/kg.

For `CCCCN1CCCCC1C(=O)Nc1c(C)cccc1C` (stereo not shown) [Bupivacaine, reference compound], the LD50 was 50 mg/kg.

As to `CCCN1CCCCC1COc1c(C)cccc1C` (stereo not shown) [Example 6, N-(n-propyl)-2-[(2,6-xyloxy)methyl]piperidine], the LD50 amounted to 200 mg/kg.

Compound `CC1CCCC(C)C1OCC1CCCCN1` (stereo not shown) [Example 3, 2-[(2,6-dimethylcyclohexyloxy)methyl]piperidine] yielded an LD50 of 180 mg/kg.

For `Cc1ccccc1OCC1CCCCN1C` (stereo not shown) [Example 11], the LD50 was 300 mg/kg.

The test system of another data set is ventricular arrhythmias. The data set can be described thus: Antiarrhythmic effects, ouabain-induced ventricular arrhythmias in anesthetized dogs. It is filed as in vivo. The note with it: i.v., 1 mg/kg. Here is the method:
2. Antiarrhythmic effects.
Ventricular arrhythmias were induced in anesthetized dogs by intravenous injection of ouabain: initially 40 μg/kg bodyweight and thereafter 20 μg/kg bodyweight every 20 minutes until the ventricular arrhythmia was regarded as manifest. Lidocaine was also tested by the same procedure. The new compounds were compared with lidocaine, a known antiarrhythmic compound.
Regarding `CCN1CCCCC1COc1c(C)cccc1C` (stereo not shown) [Example 5, N-ethyl-2-[(2,6-xyloxy)-methyl]piperidine], the Duration of regularization stood at 3 min.

`Cc1cccc(C)c1OCC1CCCCN1` (stereo not shown) [Example 1, 2-[(2,6-xyloxy)methyl]piperidine] gave a Duration of regularization of 5 min.

For the compound `CCCN1CCCCC1COc1c(C)cccc1C` (stereo not shown) [Example 6, N-(n-propyl)-2-[(2,6-xyloxy)methyl]piperidine], the Duration of regularization is on record as 4 min.

Staying with this data set, now noted: i.v., 2 mg/kg.
As for `Cc1cccc(C)c1OCC1CCCCN1` (stereo not shown) [Example 1, 2-[(2,6-xyloxy)methyl]piperidine], the Duration of regularization was found to be 10 min.

Another data set has as its system cynomolgus monkeys. The data set can be described thus: Spinal anesthetic effects in monkeys, intrathecal injection. Format: in vivo. Particulars: intrathecal 1.0 ml, 3.0% by wt. The procedure: D. Spinal Anesthetic Effects.
Spinal anesthetsias were performed on cynomolgus monkeys that had been sedated with ketamine (6 mg/kg; i.m.). 1.0 ml of the test solutions were injected intrathecally and the durations were tested every ten (10) minutes with forceps. The duration of motoric blockade was calculated as the time until the hind leg paralysis ceased.
Turning to `CCN1CCCCC1COc1c(C)cccc1C` (stereo not shown) [Example 5, N-ethyl-2-[(2,6-xyloxy)-methyl]piperidine], the “Duration, Anal Blockade” value amounted to 258 min; the “Duration, Digital Blockade” value was 163 min; the “Duration, Motor Blockade” value came out at 178 min.

Take `CCCN1CCCCC1COc1c(C)cccc1C` (stereo not shown) [Example 6, N-(n-propyl)-2-[(2,6-xyloxy)methyl]piperidine]: the “Duration, Anal Blockade” value is above 291 min; the “Duration, Digital Blockade” value was determined as 222 min; the “Duration, Motor Blockade” value is above 198 min.

Another data set concerns lingomandibular reflex. The data set can be described thus: Interneuronblocking effects, lingomandibular reflex in anesthetized cats. It is filed as in vivo, cats (female; 2.5-3.5 kg). Particulars: Felis catus, iv, 2.5 mg/kg bodyweight, read-out: Maximal inhibition. Here is the method: 3. Interneuronblocking effects.
Tests were carried out in anesthetized cats (female; 2.5-3.5 kg bodyweight). The effects of the compounds were studied on the lingomandibular reflex, which was provoked by means of electrical stimulation of the tongue. The mandibular reflux was registered from a transducer connected to the mandible. Phenyramidole was tested by the same procedure. As evident from the results shown in Table 8, the compound according to Example 2 of the invention is 10 times as potent as phenyramidole.
As usually defined, the inhibition is the change of the read-out against control, counted positive when it falls. Take `OC(CNc1ccccn1)c1ccccc1` (stereo not shown) [Phenyramidole, reference compound]: the inhibition at 2.5 mg/kg stood at 40%.

The data set is the same for the next values; noted with them: Felis catus, iv, 5.0 mg/kg bodyweight, read-out: Maximal inhibition.
In the case of `OC(CNc1ccccn1)c1ccccc1` (stereo not shown) [Phenyramidole, reference compound], the inhibition at 5 mg/kg is 80%.

Still in this data set, the particulars now being: Felis catus, iv, 10.0 mg/kg bodyweight, read-out: Maximal inhibition.
As for `OC(CNc1ccccn1)c1ccccc1` (stereo not shown) [Phenyramidole, reference compound], the inhibition at 10 mg/kg worked out at 100%.

Still in this data set, the particulars now being: i.v., 2.5 mg/kg bodyweight.
`OC(CNc1ccccn1)c1ccccc1` (stereo not shown) [Phenyramidole, reference compound] showed a Duration of inhibition of 5 min.

The same data set, now with this note: i.v., 5.0 mg/kg bodyweight.
For the compound `OC(CNc1ccccn1)c1ccccc1` (stereo not shown) [Phenyramidole, reference compound], the Duration of inhibition amounted to 20 min.

Still in this data set, the particulars now being: i.v., 10.0 mg/kg bodyweight.
Take `OC(CNc1ccccn1)c1ccccc1` (stereo not shown) [Phenyramidole, reference compound]: the Duration of inhibition worked out at 60 min.
